Results reported in article PMC4965010 (PLoS ONE, 2016).
Read-outs that look alike come from different tables or passages of the source. Marks after values point to notes of the source that are not given here.

Molecular target: T1, human FXIIIa (Homo sapiens, UniProt P00488)
T1 construct: purchased Haematologic Technologies (Essex Junction, VT)
T1 sequence (P00488 39-732 limits assumed): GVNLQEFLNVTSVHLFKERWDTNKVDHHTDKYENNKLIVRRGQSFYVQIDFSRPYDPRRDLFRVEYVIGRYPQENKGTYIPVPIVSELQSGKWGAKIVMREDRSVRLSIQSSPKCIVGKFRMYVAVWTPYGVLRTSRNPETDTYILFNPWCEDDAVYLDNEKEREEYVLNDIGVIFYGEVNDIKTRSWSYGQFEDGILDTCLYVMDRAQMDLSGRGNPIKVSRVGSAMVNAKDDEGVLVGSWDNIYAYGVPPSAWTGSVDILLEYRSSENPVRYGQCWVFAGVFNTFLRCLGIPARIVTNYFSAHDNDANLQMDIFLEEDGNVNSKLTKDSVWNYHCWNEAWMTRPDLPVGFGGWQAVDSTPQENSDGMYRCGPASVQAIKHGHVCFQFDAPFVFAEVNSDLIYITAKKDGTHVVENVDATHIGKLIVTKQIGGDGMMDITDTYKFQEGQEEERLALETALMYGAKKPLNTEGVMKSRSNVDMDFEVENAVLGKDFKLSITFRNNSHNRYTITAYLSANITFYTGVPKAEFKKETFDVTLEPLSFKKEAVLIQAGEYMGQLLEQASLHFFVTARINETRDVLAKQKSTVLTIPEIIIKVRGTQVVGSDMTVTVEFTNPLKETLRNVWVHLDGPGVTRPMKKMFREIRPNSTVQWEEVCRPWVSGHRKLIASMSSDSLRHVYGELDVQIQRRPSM
Assay: bisubstrate, fluorescence-based transglutamination assay (dansylcadaverine / N,N-dimethylcasein)
Type: biochemical
Conditions: pH 8.0, 37°C; for inhibition at 20 µM: pH 8, 20 μM
Experimental: The library of sulfated molecules was screened for inhibition of human FXIIIa using a modified bisubstrate, fluorescence-based transglutamination assay, as described earlier. Dansylcadaverine and N,N-dimethyl-casein were used as two substrates, which upon FXIIIa-dependence conjugation show a marked increase in fluorescence at 550 nm (λEX = 360 nm). Initial screening was performed at 200 μM NSGM concentration (1–15) or 50–1110 μM GAG concentration (16–22) (Table 1). At these levels, none of GAGs inhibited FXIIIa by more than 5%. […] Trimeric scaffolds 13 and 14 inhibited FXIIIa by 94% and 29%, respectively. […] To identify promising NSGMs from these, screening was performed at a lower concentration (20 μM).
Direct inhibition of human FXIIIa was measured spectrofluorometrically by a bisubstrate, fluorescence-based transglutamination assay at pH 8.0 and 37°C on a microplate reader (FlexStation III, Molecular Devices) (modified from earlier reports). Briefly, to each well of a 96-well microplate containing 80 μL of 50 mM TrisHCl buffer, pH 8.0, containing 100 mM NaCl, 10 mM CaCl2, and 2 mg/mL dimethylcasein was added 5 μL potential NSGM-based inhibitor (0–20 mM aqueous solution) or vehicle, 5 μL DTT (20 mM), and 5 μL enzyme (0.12–1.2 μM) at 37°C. After 5 min incubation, 5 μL of dansylcadaverine (2.5 mM) was rapidly added and the residual enzyme activity was measured from the initial rate of increase in RFU (λEM = 550 nm, λEX = 360 nm). Relative residual enzyme activity (Y) as a function of the concentration of sulfated molecule was fitted using logistic Eq 1 to obtain the potency (IC50), efficacy (ΔY) and Hill slope (HS) of inhibition. In this equation, YM and Yo are the maximal and minimal values of Y.

[1] = pH 8, 200 μM, read-out: FXIIIa inhibition at 200 μM (%)

Structure (SMILES) | inhibition at 200 µM [1] | inhibition at 20 µM | further results
NC(=O)CI [IAA, Iodoacetamide, reference compound] | – | – | HS, Hill slope (FXIIIa): 0.8 ± 0.2; IC50: 2.9 ± 0.4 µM; ΔY, efficacy (FXIIIa): 105 ± 10%; ΔY, efficacy (FXIIIa) (listed as Iodoacetamide): ~ 100%
O=c1c(OS(=O)(=O)O)c(-c2ccc(OS(=O)(=O)O)c(OS(=O)(=O)O)c2)oc2cc(OS(=O)(=O)O)cc(OS(=O)(=O)O)c12 [Molecule 1] | – | – | FXIIIa inhibition at 200 μM (%): 31 ± 4^b %; inhibition at 200 µM (pH 8, read-out: FXIIIa inhibition at 200 μM (%), 200 μM): ~30%
O=c1c(OS(=O)(=O)O)c(-c2ccc(OS(=O)(=O)O)c(OS(=O)(=O)O)c2)oc2cc(OS(=O)(=O)O)cc(OCCCCOc3cc(OS(=O)(=O)O)cc4oc(-c5ccc(OS(=O)(=O)O)c(OS(=O)(=O)O)c5)c(OS(=O)(=O)O)c(=O)c34)c12 [Molecule 6] | 89 ± 5% | 40 ± 3% | –
O=c1c(OS(=O)(=O)O)c(-c2ccc(OS(=O)(=O)O)c(OS(=O)(=O)O)c2)oc2cc(OS(=O)(=O)O)cc(OC/C=C/COc3cc(OS(=O)(=O)O)cc4oc(-c5ccc(OS(=O)(=O)O)c(OS(=O)(=O)O)c5)c(OS(=O)(=O)O)c(=O)c34)c12 [Molecule 7] | 58 ± 4% | 31 ± 3% | –
CO[C@H]1O[C@H](COS(=O)(=O)O)[C@@H](O[C@@H]2O[C@@H](C(=O)O)[C@@H](O[C@H]3O[C@H](COS(=O)(=O)O)[C@@H](O[C@@H]4O[C@H](C(=O)O)[C@@H](O[C@H]5O[C@H](COS(=O)(=O)O)[C@@H](O)[C@H](O)[C@H]5NS(=O)(=O)O)[C@H](O)[C@H]4O)[C@H](OS(=O)(=O)O)[C@H]3NS(=O)(=O)O)[C@H](O)[C@H]2OS(=O)(=O)O)[C@H](O)[C@H]1NS(=O)(=O)O [Molecule 18, fondaparinux, reference compound] | – | – | inhibition at 360 µM (pH 8, at 360 μM): ~0%
O=S(=O)(O)OC[C@H]1O[C@@](COS(=O)(=O)O)(O[C@H]2O[C@H](COS(=O)(=O)O)[C@@H](OS(=O)(=O)O)[C@H](OS(=O)(=O)O)[C@H]2OS(=O)(=O)O)[C@@H](OS(=O)(=O)O)[C@@H]1OS(=O)(=O)O [Molecule 22, sucrose octasulfate, reference compound] | ~17% | – | –

Further lines, with some results ahead:

inhibition at 200 µM [1] | inhibition at 20 µM | Structure (SMILES) | further results
~30% | – | O=S(=O)(O)Oc1cc2c(c(OS(=O)(=O)O)c1)C[C@H](OS(=O)(=O)O)[C@@H](c1ccc(OS(=O)(=O)O)c(OS(=O)(=O)O)c1)O2 [Molecule 2] | FXIIIa inhibition at 200 μM (%): 32 ± 6%
65 ± 3% | 27 to 40% | O=c1c(OS(=O)(=O)O)c(-c2ccc(OS(=O)(=O)O)c(OS(=O)(=O)O)c2)oc2cc(OS(=O)(=O)O)cc(OCCOc3cc(OS(=O)(=O)O)cc4oc(-c5ccc(OS(=O)(=O)O)c(OS(=O)(=O)O)c5)c(OS(=O)(=O)O)c(=O)c34)c12 [Molecule 3] | FXIIIa inhibition at 20 μM (%) (20 μM): 26 ± 2%
67 ± 5% | – | O=c1c(OS(=O)(=O)O)c(-c2ccc(OS(=O)(=O)O)c(OS(=O)(=O)O)c2)oc2cc(OS(=O)(=O)O)cc(OCCCOc3cc(OS(=O)(=O)O)cc4oc(-c5ccc(OS(=O)(=O)O)c(OS(=O)(=O)O)c5)c(OS(=O)(=O)O)c(=O)c34)c12 [Molecule 4] | –
84 ± 5% | – | O=c1c(OS(=O)(=O)O)c(-c2ccc(OS(=O)(=O)O)c(OC/C=C/COc3cc(-c4oc5cc(OS(=O)(=O)O)cc(O)c5c(=O)c4OS(=O)(=O)O)ccc3OS(=O)(=O)O)c2)oc2cc(OS(=O)(=O)O)cc(O)c12 [Molecule 8] | –
